Assay results taken from patent US8022205B2, “Pyrimidine derivatives as PI3K inhibitor and use thereof” (Chugai Seiyaku Kabushiki Kaisha, priority 2006, dated 2011).
Structures can show the parent of a compound that is named as a salt.

Experiments:
[1] = test system: human lung cancer cell line NCI-H460; assay: Cell proliferation inhibitory activity (Cell Counting Kit-8), lung cancer NCI-H460; type: cell-based; details: 96 h, NCI-H460, 4 days, read-out: Cell proliferation inhibitory activity (% Inhibition at 2.5 μM) Non-small cell lung cancer (NCI-H460)
Description: (§1) The cell proliferation inhibitory activity was measured for compounds of the present invention represented by formula (I). Cancer cell proliferation inhibitory activity was measured using the Cell Counting Kit-8 (Dojindo). 2000 cells each of human colon cancer cell line HCT116 purchased from the American Type Culture Collection (Virginia, USA) were seeded into each well of a 96-well culture plate followed by the addition of a predetermined concentration of the compounds and cultivating in a CO2environment for 4 days at 37° C. On the fourth day of cultivating, the Cell Counting Kit-8 solution was added and absorbance (measuring wavelength: 450 nm, reference wavelength: 615 nm) was measured in accordance with the protocol provided with the kit.
(§2) Cancer cell proliferation inhibitory activity was also measured for human lung cancer cell line NCI-H460 and human prostate cancer cell line PC3 purchased from the American Type Culture Collection. 1000 and 3000 cells of NCI-H460 and PC3, respectively, were seeded into each well of a 96-well culture plate followed by testing in the same manner as the human colon cancer cell line and calculating the percentage of cell proliferation inhibition at 2.5 μM.

human PI3K(p110α/p85α) = human PI3K(p110α/p85α) (Homo sapiens, UniProt P42336); assay: Measurement of PI3K inhibitory activity (AlphaScreen GST Detection Kit); type: biochemical; details: 10 μM ATP, 4 μM PI(4,5)P2, read-out: Enzyme inhibitory activity (IC50, μM) PI3K α
Description: The inhibitory activity of compounds of the present invention represented by formula (I) were measured with human PI3K(p110α/p85α) prepared in a baculovirus expression system using the AlphaScreen GST Detection Kit (Perkin Elmer, Inc.). A predetermined concentration of the compound dissolved in dimethylsulfoxide (DMSO) and PI3K were mixed in a 384-well assay plate and after allowing to stand for 20 minutes at room temperature, 4 μM PI(4,5)P2 (Echelon Corporation) and 10 μM ATP (5 mM Hepes, pH 7.5, 2.5 mM MgCl2) were added to initiate the reaction. After reacting for 15 minutes at 37° C., GST-GRP1 expressed and purified from Escherichia coli, Anti-GST Acceptor Beads (Perkin Elmer, Inc.), Streptavidin Donor Beads (Perkin Elmer, Inc.) and biotin-PI(3,4,5) P3 (Echelon Corporation) (10 mM Tris-HCl pH 7.4, 150 mM NaCl, 7.5 mM EDTA, 1 mM DTT, 0.1% Tween 20) were added, and after allowing to stand for 1 hour at room temperature, light at 520 to 620 nm emitted as a result of exciting with light at 680 nm was measured with the Envision measuring instrument (Perkin Elmer, Inc.).
Test Example 1 described above can be performed according to “Analytical Biochemistry, 2003, 313, 234-245; Alexander Gray et al”.

[2] = test system: human prostate cancer cell line PC3; assay: Cell proliferation inhibitory activity (Cell Counting Kit-8), prostate cancer PC3; type: cell-based; details: 96 h, PC3, 4 days
Description: as §1, §2

[3] = test system: human colon cancer cell line HCT116; assay: Cell proliferation inhibitory activity (Cell Counting Kit-8), colon cancer HCT116; type: cell-based; details: HCT-116, 96 h, HCT116, 4 days
Description: as §1

human PI3K(p110α/p85α), sequence (P42336 whole entry): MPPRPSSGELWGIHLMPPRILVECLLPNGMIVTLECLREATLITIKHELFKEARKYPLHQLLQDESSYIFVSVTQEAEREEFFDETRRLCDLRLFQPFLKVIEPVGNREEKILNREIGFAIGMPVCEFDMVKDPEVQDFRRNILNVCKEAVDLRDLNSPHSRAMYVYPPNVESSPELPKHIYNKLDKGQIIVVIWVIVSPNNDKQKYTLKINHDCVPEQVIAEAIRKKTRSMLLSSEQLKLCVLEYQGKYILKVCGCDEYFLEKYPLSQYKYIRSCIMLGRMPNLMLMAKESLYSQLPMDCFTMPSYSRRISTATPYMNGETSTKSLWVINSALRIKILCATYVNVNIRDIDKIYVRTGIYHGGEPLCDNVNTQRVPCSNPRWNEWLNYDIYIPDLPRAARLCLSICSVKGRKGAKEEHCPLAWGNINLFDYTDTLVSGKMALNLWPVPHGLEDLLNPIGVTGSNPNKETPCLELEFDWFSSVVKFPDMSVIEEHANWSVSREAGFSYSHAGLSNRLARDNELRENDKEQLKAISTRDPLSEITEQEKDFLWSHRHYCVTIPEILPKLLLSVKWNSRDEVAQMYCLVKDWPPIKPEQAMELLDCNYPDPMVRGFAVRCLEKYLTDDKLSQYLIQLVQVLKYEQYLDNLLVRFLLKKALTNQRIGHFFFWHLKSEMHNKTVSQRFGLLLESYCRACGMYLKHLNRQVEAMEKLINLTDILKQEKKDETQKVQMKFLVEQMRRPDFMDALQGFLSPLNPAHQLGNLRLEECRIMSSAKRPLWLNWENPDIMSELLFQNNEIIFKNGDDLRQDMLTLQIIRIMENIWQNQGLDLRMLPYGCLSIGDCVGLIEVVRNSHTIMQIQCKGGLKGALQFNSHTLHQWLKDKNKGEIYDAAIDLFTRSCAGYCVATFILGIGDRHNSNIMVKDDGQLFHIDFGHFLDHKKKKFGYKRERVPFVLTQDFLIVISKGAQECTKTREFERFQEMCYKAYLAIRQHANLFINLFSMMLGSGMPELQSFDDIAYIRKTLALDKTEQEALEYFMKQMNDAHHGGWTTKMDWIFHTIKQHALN
human PI3K(p110α/p85α), sequence (P27986 whole entry partner): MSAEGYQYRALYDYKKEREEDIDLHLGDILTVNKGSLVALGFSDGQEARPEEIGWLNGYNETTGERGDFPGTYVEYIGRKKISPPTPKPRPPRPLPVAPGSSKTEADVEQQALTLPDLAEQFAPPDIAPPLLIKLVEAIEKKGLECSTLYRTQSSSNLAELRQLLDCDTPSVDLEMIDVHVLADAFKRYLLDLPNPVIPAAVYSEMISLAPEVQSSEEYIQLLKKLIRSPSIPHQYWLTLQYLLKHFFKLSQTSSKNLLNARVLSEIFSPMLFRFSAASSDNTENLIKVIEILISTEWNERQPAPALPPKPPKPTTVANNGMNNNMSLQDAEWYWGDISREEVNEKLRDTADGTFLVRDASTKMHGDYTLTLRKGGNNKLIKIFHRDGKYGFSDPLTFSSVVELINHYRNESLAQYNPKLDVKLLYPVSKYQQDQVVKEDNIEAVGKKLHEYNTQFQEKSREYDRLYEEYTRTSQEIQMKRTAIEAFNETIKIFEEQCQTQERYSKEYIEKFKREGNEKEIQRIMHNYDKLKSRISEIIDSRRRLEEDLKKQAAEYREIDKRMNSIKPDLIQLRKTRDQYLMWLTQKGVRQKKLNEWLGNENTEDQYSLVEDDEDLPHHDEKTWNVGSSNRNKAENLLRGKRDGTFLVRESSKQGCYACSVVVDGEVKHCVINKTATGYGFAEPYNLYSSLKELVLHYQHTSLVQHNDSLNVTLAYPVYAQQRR

| SMILES | inhibition at 2.5 µM [1] | IC50 (human PI3K(p110α/p85α)) | inhibition at 2.5 µM [2] | inhibition at 2.5 µM [3] |
| --- | --- | --- | --- | --- |
| Nc1ncc(-c2nc(N3CCOCC3)nc3c2CCN3C(=O)Nc2c(F)cc(N3CCOCC3)cc2F)cn1 [Example D-273, 4-(2-Amino-pyrimidin-5-yl)-2-morpholin-4-yl-5,6-dihydro-pyrrolo[2,3-d]pyrimidine-7-carboxylic acid (2,6-difluoro-4-morpholin-4-yl-phenyl)-amide] | 67% | 0.01 µM | 79% | 83% |
| Oc1cccc(-c2nc(N3CCOCC3)nc3c2CCN3c2ccncc2)c1 [Example A-09, 3-(2-Morpholin-4-yl-7-pyridin-4-yl-6,7-dihydro-5H-pyrrolo[2,3-d]pyrimidin-4-yl)-phenol] | 84% | 0.009 µM | 96% | 83% |
| CN1CCN(c2cc(F)c(NC(=O)N3CCc4c(-c5cnc(N)nc5)nc(N5CCOCC5)nc43)c(F)c2)CC1 [Example D-23, 4-(2-Amino-pyrimidin-5-yl)-2-morpholin-4-yl-5,6-dihydro-pyrrolo[2,3-d]pyrimidine-7-carboxylic acid [4-(4-methyl-piperazin-1-yl)-2,6-difluoro-phenyl]-amide] | 100% | 0.006 µM | 89% | 99% |
| CCCN1CCN(Cc2ccc(N3CCc4c(-c5cnc(N)nc5)nc(N5CCOCC5)nc43)cc2)CC1 [Example D-327, 5-{2-morpholin-4-yl-7-[4-(4-propyl-piperazin-1-ylmethyl)-phenyl]-6,7-dihydro-5H-pyrrolo[2,3-d]pyrimidin-4-yl}-pyrimidin-2-ylamine] | 85% | 0.07 µM | 79% | 78% |
| CN(C)CCNC(=O)c1cccc(-c2nc(N3CCOCC3)nc3c2CCN3c2cccnc2)c1 [Example G-05, N-(2-dimethylaminoethyl)-3-(2-morpholin-4-yl-7-pyridin-3-yl-6,7-dihydro-5H-pyrrolo[2,3-d]pyrimidin-4-yl)-benzamide] | 55% | 0.36 µM | 49% | 38% |
| Nc1ncc(-c2nc(N3CCOCC3)nc3c2CCN3c2ccc(CN3CCN(CCC(F)(F)F)CC3)cc2)cn1 [Example D-332, 5-(2-morpholin-4-yl-7-{4-[4-(3,3,3-trifluoropropyl)piperazin-1-ylmethyl]-phenyl}-6,7-dihydro-5H-pyrrolo[2,3-d]pyrimidin-4-yl}-pyrimidin-2-ylamine] | 54% | 0.21 µM | 43% | 60% |
| CCN1CCN(c2cc(N3CCc4c(-c5cnc(N)nc5)nc(N5CCOCC5)nc43)ccn2)CC1 [Example H-34, 5-{7-[2-(4-Ethyl-piperazin-1-yl)-pyridin-4-yl]-2-morpholin-4-yl-6,7-dihydro-5H-pyrrolo[2,3-d]pyrimidin-4-yl}-pyrimidin-2-ylamine] | 89% | 0.011 µM | 91% | 81% |
| CC(=O)N1CCc2c(-c3cnc(N)nc3)nc(N3CCOCC3)nc21 [Example D-01, 1-[4-(2-Amino-pyrimidin-5-yl)-2-morpholin-4-yl-5,6-dihydro-pyrrolo[2,3-d]pyrimidin-7-yl]-ethanone] | 92% | 0.04 µM | 89% | 83% |
| CN1CCN(C(=O)c2ccc(N3CCc4c(-c5cnc(N)nc5)nc(N5CCOCC5)nc43)cc2)CC1 [Example D-42, {4-[4-(2-Amino-pyrimidin-5-yl)-2-morpholin-4-yl-5,6-dihydro-pyrrolo[2,3-d]pyrimidin-7-yl]-phenyl}-(4-methyl-piperazin-1-yl)-methanone] | 94% | 0.014 µM | 88% | 91% |
| CCN1CCN(C(=O)c2cccc(NC(=O)N3CCc4c(-c5cnc(N)nc5)nc(N5CCOCC5)nc43)c2)CC1 [Example D-101, 4-(2-Amino-pyrimidin-5-yl)-2-morpholin-4-yl-5,6-dihydro-pyrrolo[2,3-d]pyrimidine-7-carboxylic acid [3-(4-ethyl-piperazine-1-carbonyl)-phenyl]-amide] | 67% | 0.009 µM | 89% | 92% |
| Nc1ccc(-c2nc(N3CCOCC3)nc3c2CCN3c2ccncc2)nc1 [Example B-55, 6-(2-Morpholin-4-yl-7-pyridin-4-yl-6,7-dihydro-5H-pyrrolo[2,3-d]pyrimidin-4-yl)-pyridin-3-ylamine] | 58% | 0.34 µM | 47% | 79% |
| CN1CCN(Cc2ccc(N3CCc4c(-c5cnc(N)nc5)nc(N5CCOCC5)nc43)c(F)c2)CC1 [Example D-326, 5-{7-[2-fluoro-4-(4-methyl-piperazin-1-ylmethyl)-phenyl]-2-morpholin-4-yl-6,7-dihydro-5H-pyrrolo[2,3-d]pyrimidin-4-yl}-pyrimidin-2-ylamine] | 83% | 0.24 µM | 81% | 72% |
| CN(CCN1CCOCC1)C(=O)c1ccc(N2CCc3c(-c4cnc(N)nc4)nc(N4CCOCC4)nc32)cc1 [Example D-139, 4-[4-(2-Amino-pyrimidin-5-yl)-2-morpholin-4-yl-5,6-dihydro-pyrrolo[2,3-d]pyrimidin-7-yl]-N-methyl-N-(2-morpholin-4-yl-ethyl)-benzamide] | 72% | 0.009 µM | 89% | 90% |
| CN(C)CCOC(=O)c1cccc(-c2nc(N3CCOCC3)nc3c2CCN3c2cccnc2)c1 [Example G-27, 3-(2-Morpholin-4-yl-7-pyridin-3-yl-6,7-dihydro-5H-pyrrolo[2,3-d]pyrimidin-4-yl)-benzoic acid 2-dimethylamino-ethyl ester] | 18% | 0.33 µM | 48% | 44% |
| CN1CCN(Cc2ccc(N3CCc4c(-c5cnc(N)nc5)nc(N5CCOCC5)nc43)cc2F)CC1 [Example D-325, 5-{7-[3-fluoro-4-(4-methyl-piperazin-1-ylmethyl)-phenyl]-2-morpholin-4-yl-6,7-dihydro-5H-pyrrolo[2,3-d]pyrimidin-4-yl}-pyrimidin-2-ylamine] | 81% | 0.11 µM | 73% | 78% |
| NCc1ccc(-c2nc(N3CCOCC3)nc3c2CCN3c2ccncc2)cc1 [Example B-32, 4-(2-Morpholin-4-yl-7-pyridin-4-yl-6,7-dihydro-5H-pyrrolo[2,3-d]pyrimidin-4-yl)-benzylamine hydrochloride] | 67% | 0.47 µM | 29% | 78% |
| Nc1ncc(-c2nc(N3CCOCC3)nc3c2CCN3c2ccc(C(=O)N3CCNCC3)nc2)cn1 [Example D-128, {5-[4-(2-Amino-pyrimidin-5-yl)-2-morpholin-4-yl-5,6-dihydro-pyrrolo[2,3-d]pyrimidin-7-yl]-pyridin-2-yl}-piperazin-1-yl-methanone] | 95% | 0.008 µM | 60% | 81% |
| Nc1ncc(-c2nc(N3CCOCC3)nc3c2CCN3c2ccc(C(=O)N3CCN(c4cccnc4)CC3)cc2)cn1 [Example D-20, {4-[4-(2-Amino-pyrimidin-5-yl)-2-morpholin-4-yl-5,6-dihydro-pyrrolo[2,3-d]pyrimidin-7-yl]-phenyl}-(4-pyridin-3-yl-piperazin-1-yl)-methanone] | 99% | 0.046 µM | 99% | 83% |
| CN(C)CCOc1cc(N2CCc3c(-c4cnc(N)nc4)nc(N4CCOCC4)nc32)ccn1 [Example H-32, 5-[7-(2-Dimethylaminoethoxy-pyridin-4-yl)-2-morpholin-4-yl-6,7-dihydro-5H-pyrrolo[2,3-d]pyrimidin-4-yl]-pyrimidin-2-ylamine] | 86% | 0.018 µM | 89% | 82% |
